{"source": "patent US4065575A", "about": "“3-Aminomethyl derivatives of 4-chromanone” (Joullie International, priority 1975, dated 1977)", "key": {"[1]": {"tested_on": "hypertensive effects of electrical stimulation, adrenaline and noradrenaline", "assay": "α-Sympatholytic effects in amyeliated rats", "assay_type": "in vivo", "details": "for % variation of the hypertensive effects obtained with adrenaline: adrenaline 1.25 to 2.5 μg./kg.; for % variation of the hypertensive effects obtained with noradrenaline: noradrenaline 1.25 to 2.5 μg./kg.", "source_text": "The α-sympatholytic effects of LJ 1052 and LJ 1053 are compared with those of isoxsuprine in amyeliated rats which have been prepared by a method derived from those of Shipley and Tilden (Proc. soc. Exp. Biol. Med. 1947, 64, 453-455) and of Gillespie and Muir (Br. J. Pharmac. Chemother. 1967, 30, 78-87).\nThe effects on the blood pressure of electrical stimulation of the thoracolumbar sympathic nerve (rectangular signals = voltage 20 to 40 volts; width 2 m. sec; frequency 10 secs.; duration 5 to 10 secs.) and of injections of adrenaline (1.25 to 2.5 μg./kg.) and of noradrenaline (1.25 to 2.5 μg./kg.) are determined before and after injection of the products tested."}, "platelet aggregation": {"tested_on": "platelet aggregation", "assay": "Anti-platelet-aggregation in vitro", "assay_type": "cell-based", "details": "in words"}, "ADP platelet aggregation": {"tested_on": "ADP platelet aggregation", "assay": "ADP aggregation test", "assay_type": "cell-based", "details": "in words"}, "[2]": {"tested_on": "isolated auricle of a rabbit", "assay": "Peripheral vasomotoricity, isolated and perfused auricle of a rabbit", "method": "The flow rate of the liquid issuing from the veins is recorded by electronic contact on a polygraph. The products to be studied are injected at increasing doses into the perfusion tube and their actions are compared to that of isoxsuprine used as the reference substance.\nThe results, collected in Table No. III, are expressed in the maximum percentage increase of the flow rate at the various doses used."}, "[3]": {"assay": "Acute toxicity in mice (LD 50)", "assay_type": "in vivo", "details": "mouse, in vivo, mice, 15 days observation", "method": "(§1) The study is carried out on batches of 5 Swiss female mice of the NMRI Han. strain. The products are administered either intravenously (into the caudal vein) in solution in a 9 g..permill. sodium chloride solution, or orally (probang) in suspension in a 10% solution of gum arabic.\n(§2) The animals are observed for the 15 days following the administration of the products.\n(§3) The LD 50 values are calculated by the method of Karber and Behrens (Arch. Exp. Pathol. Pharm. 177, 1935, page 379)."}, "mice": {"tested_on": "mice", "assay": "Acute toxicity in mice (LD 50)", "assay_type": "in vivo", "details": "intravenous; in words", "method": "as §1, §2, §3"}, "[4]": {"assay": "Cardiovascular action in dogs", "assay_type": "in vivo, male Beagle dogs", "method": "Male Beagle dogs weighing 9 to 12 kg. were anaesthetised by intrasaphenous injection of a 2% solution of chloralose in physiological solution, at a dose of 100 mg./kg.\nThe anaesthesia is maintained by slow perfusion of 5% pentobarbital (1.2 ml./hour).\nThe animals are tracheotomised and placed under assisted respiration by means of a Bird respirator. Their oxygenation and their acid-base equilibrium are controlled by determination of the pH, the pCO2 and the pO2 on blood samples taken from a collateral of the brachial artery (pH/gas analyser for blood, IL model 213/227).\nThe different parameters are recorded on a polygraph."}, "[5]": {"details": "dose 50 g./kg. (so in the source)"}, "[6]": {"details": "dose 100 g./kg. (so in the source)"}, "[7]": {"details": "dose 500 g./kg. (so in the source)"}, "[8]": {"details": "dose 2,500 g./kg. (so in the source)"}, "[9]": {"details": "0.04 mg./kg. i.v. (1/1,000 LD 50)"}, "[10]": {"details": "0.04 mg./kg. i.v. (1/1,000 LD 50), first or only phase"}}, "note": "Entries after “also recorded” stand apart in the source; their conditions may differ. Where a name gives a salt, the structure may show the parent alone."}
{"smiles": "COCCNCC1COc2ccccc2C1=O", "note": "(stereo not drawn) [LJ 1052, 3-(2-Methoxyethylaminomethyl)-4-chromanone hydrochloride]", "values": [{"measurement": "% variation of the hypertensive effects obtained with electrical stimulation", "setting": "[1]; [5]", "value": 0, "unit": "%"}, {"measurement": "% variation of the hypertensive effects obtained with adrenaline", "setting": "[1]; [5]", "value": -15, "unit": "%"}, {"measurement": "% variation of the hypertensive effects obtained with noradrenaline", "setting": "[1]; [5]", "value": -11, "unit": "%"}, {"measurement": "% variation of the hypertensive effects obtained with electrical stimulation", "setting": "[1]; [6]", "value": 0, "unit": "%"}, {"measurement": "% variation of the hypertensive effects obtained with adrenaline", "setting": "[1]; [6]", "value": -28, "unit": "%"}, {"measurement": "% variation of the hypertensive effects obtained with noradrenaline", "setting": "[1]; [6]", "value": -12, "unit": "%"}, {"measurement": "% variation of the hypertensive effects obtained with electrical stimulation", "setting": "[1]; [7]", "value": -20, "unit": "%"}, {"measurement": "% variation of the hypertensive effects obtained with adrenaline", "setting": "[1]; [7]", "value": -77, "unit": "%"}, {"measurement": "% variation of the hypertensive effects obtained with noradrenaline", "setting": "[1]; [7]", "value": -38, "unit": "%"}, {"measurement": "% variation of the hypertensive effects obtained with electrical stimulation", "setting": "[1]; [8]", "value": -80, "unit": "%"}, {"measurement": "% variation of the hypertensive effects obtained with adrenaline", "setting": "[1]; [8]", "value": -77, "unit": "%"}, {"measurement": "% variation of the hypertensive effects obtained with noradrenaline", "setting": "[1]; [8]", "value": -50, "unit": "%"}, {"measurement": "α-sympatholytic effect, comparison", "setting": "[1]; same doses, in words", "value": "less α-sympatholytic than LJ 1053 and isoxsuprine"}, {"measurement": "anti-platelet-aggregation properties", "setting": "platelet aggregation", "value": "marked anti-platelet-aggregation properties in vitro"}, {"measurement": "anti-aggregation activity compared with adenosine", "setting": "ADP platelet aggregation", "value": "almost as active as adenosine"}, {"measurement": "activation at 0.0001 mg", "setting": "[2]; Oryctolagus cuniculus, dose 0.1 μg., read-out: Maximum variations in the flow rate", "value": 79, "unit": "%"}, {"measurement": "activation at 0.001 mg", "setting": "[2]; Oryctolagus cuniculus, dose 1 μg., read-out: Maximum variations in the flow rate", "value": 77, "unit": "%"}, {"measurement": "activation at 0.01 mg", "setting": "[2]; Oryctolagus cuniculus, dose 10 μg., read-out: Maximum variations in the flow rate", "value": 100, "unit": "%"}, {"measurement": "activation at 0.1 mg", "setting": "[2]; Oryctolagus cuniculus, dose 100 μg., read-out: Maximum variations in the flow rate", "value": 150, "unit": "%"}, {"measurement": "duration of the effects / of the action", "setting": "[2]; at the highest doses", "value": "≥ 30", "unit": "min"}, {"measurement": "peripheral vasodilatory action", "setting": "[2]; in words, hydrochloride", "value": "great; also recorded: as active as isoxsuprine; also recorded: great even at very low doses"}, {"measurement": "LD50 at 360 h", "setting": "[3]; intravenous administration", "value": 47, "unit": "mg/kg"}, {"measurement": "LD50 at 360 h", "setting": "[3]; oral administration", "value": 475, "unit": "mg/kg"}, {"measurement": "intravenous LD 50 in mice (comparison of three products)", "setting": "mice", "value": "practically identical"}, {"measurement": "Diastolic AP, duration of action", "setting": "[4]; [9]", "value": 2, "unit": "min"}, {"measurement": "Diastolic AP, maximum per cent variation", "setting": "[4]; [9]", "value": -29, "unit": "%"}, {"measurement": "FF, duration of action", "setting": "[4]; [9]", "value": 30, "unit": "min"}, {"measurement": "Hb (heart beat), maximum per cent variation", "setting": "[4]; [9]", "value": "+14%"}, {"measurement": "Hb, duration of action", "setting": "[4]; [9]", "value": 25, "unit": "min"}, {"measurement": "LVP, duration of action", "setting": "[4]; [9]", "value": 25, "unit": "min"}, {"measurement": "Mean AP, duration of action", "setting": "[4]; [9]", "value": 2, "unit": "min"}, {"measurement": "Mean AP, maximum per cent variation", "setting": "[4]; [9]", "value": -25, "unit": "%"}, {"measurement": "Systolic AP, duration of action", "setting": "[4]; [9]", "value": 30, "unit": "min"}, {"measurement": "Systolic AP, maximum per cent variation", "setting": "[4]; [9]", "value": "+13%"}, {"measurement": "LVP (left ventricular pressure), maximum per cent variation", "setting": "[4]; [10]", "value": "+9%"}, {"measurement": "dLVP/dt, maximum per cent variation", "setting": "[4]; [10]", "value": "+34%"}, {"measurement": "dLVP/dt, duration of action", "setting": "[4]; 0.04 mg./kg. i.v. (1/1,000 LD 50), only phase", "value": 30, "unit": "min"}, {"measurement": "cardiovascular action compared with isoxsuprine", "setting": "[4]; in words", "value": "comparable to or even greater than that of isoxsuprine"}, {"measurement": "femoral flow rate", "setting": "[4]; low doses, in words", "value": "activity comparable to that of isoxsuprine"}]}
